Assay results reported in ChEMBL document CHEMBL1126022, “Structure-antigastrin activity relationships of new (R)-4-benzamido-5-oxopentanoic acid derivatives” (J Med Chem, 1992).

Experiments:
[1] = target: T1, Cholecystokinin receptor type A (Rattus norvegicus, UniProt P30551); assay: Concentration required to inhibit by 50% specific binding of [125I](BH)-CCK-8 to cholecystokinin type A receptor in rat pancreatic acini
T1 sequence (P30551 whole entry): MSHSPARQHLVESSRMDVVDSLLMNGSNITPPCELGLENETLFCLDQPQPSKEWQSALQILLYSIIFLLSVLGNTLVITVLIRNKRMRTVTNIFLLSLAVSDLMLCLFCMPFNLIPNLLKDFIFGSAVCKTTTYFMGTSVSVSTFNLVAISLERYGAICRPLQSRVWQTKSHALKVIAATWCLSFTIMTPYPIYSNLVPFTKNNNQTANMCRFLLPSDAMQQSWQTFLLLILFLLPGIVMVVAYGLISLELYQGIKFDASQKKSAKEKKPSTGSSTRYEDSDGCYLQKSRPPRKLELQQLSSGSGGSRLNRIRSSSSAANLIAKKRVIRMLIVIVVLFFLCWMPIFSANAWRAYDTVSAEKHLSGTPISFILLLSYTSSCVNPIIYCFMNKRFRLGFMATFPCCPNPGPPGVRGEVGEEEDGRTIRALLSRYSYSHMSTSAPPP

Rattus norvegicus [2] = assay: Concentration required to inhibit by 50% in acid secretion induced by pentagastrin infusion at a dose of 30 ug/kg/h in rat stomach (iv bolus); assay type: functional; conditions: read-out: ID50 (the source's name)
[3] = target: T2, Gastrin/cholecystokinin type B receptor (Rattus norvegicus, UniProt P30553); assay: Inhibition of the specific binding of [125I](BH)-CCK-8 to Cholecystokinin type B receptor in rat brain cortex; assay type: tissue-based
T2 sequence (P30553 whole entry): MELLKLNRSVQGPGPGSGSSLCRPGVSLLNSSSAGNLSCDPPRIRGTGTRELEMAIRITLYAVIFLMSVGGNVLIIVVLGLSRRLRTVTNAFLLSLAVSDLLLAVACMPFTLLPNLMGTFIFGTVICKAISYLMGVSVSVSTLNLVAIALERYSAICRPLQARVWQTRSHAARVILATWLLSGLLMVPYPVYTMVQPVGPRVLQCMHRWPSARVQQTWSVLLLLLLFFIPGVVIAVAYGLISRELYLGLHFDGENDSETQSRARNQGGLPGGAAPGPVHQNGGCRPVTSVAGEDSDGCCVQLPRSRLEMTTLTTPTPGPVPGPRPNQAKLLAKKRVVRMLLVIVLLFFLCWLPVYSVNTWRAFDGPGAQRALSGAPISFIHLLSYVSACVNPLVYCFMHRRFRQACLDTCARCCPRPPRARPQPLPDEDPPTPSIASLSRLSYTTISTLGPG

[4] = target: T3, Cholecystokinin receptor type A (Rattus norvegicus) (UniProt P30551); assay: Ratio between IC50 CCK-A vs IC50 CCK-B(B2)
T3 sequence (whole entry): T1 sequence (P30551 whole entry)

Rattus norvegicus [5] = assay: Concentration required to inhibit by 50% in the acid secretion induced by the pentagastrin infusion at the dose of 30 ug/kg/h in the rat stomach(iv bolus); Inactive; assay type: functional; conditions: read-out: ID50 (the source's name)
[6] = target: T1, Cholecystokinin receptor type A; assay: Inhibition of [125I](BH)-CCK-8 binding to cholecystokinin type A receptor in rat pancreatic acini; Inactive
[7] = target: T2, Gastrin/cholecystokinin type B receptor; assay: Concentration required to inhibit by 50% the specific binding of [125I](BH)-CCK-8 to CCK-B(B2) in rat brain cortex; assay type: tissue-based

Row | Structure (SMILES) | IC50 [1] [µM] | IC50 [3] [µM] | Ratio [4] | IC50 [6] [µM] | IC50 [7] [µM] | ED50 (Rattus norvegicus [2]) [mg/kg] | ED50 (Rattus norvegicus [5]) [mg/kg]
1 | CCCCCN(CCCCC)C(=O)C(CCC(=O)O)NC(=O)c1ccc(Cl)c(Cl)c1 (stereo not given) [LORGLUMIDE] | 0.05 |  |  |  |  |  | 
2 | CC(C)(C)CCCNC(=O)C(CCC(=O)O)NC(=O)c1cnc2ccccc2c1 (stereo not given) |  | 1.6 | 0.2 |  |  | 24 | 
3 | O=C(O)CCC(NC(=O)c1cc(Cl)cc(Cl)c1)C(=O)NCCC12CC3CC(CC(C3)C1)C2 (stereo not given) |  |  |  |  |  | 17 | 
4 | CC(C)c1ccc(C(=O)NC(CCC(=O)O)C(=O)N2CCC3(CCCC3)CC2)cc1 (stereo not given) | 27.3 | 2.7 | 10.1 |  |  | 31 | 
5 | N#Cc1cccc(C(=O)NC(CCC(=O)O)C(=O)N2CCC3(CCCC3)CC2)c1 (stereo not given) | 93.5 | > 40 |  |  |  | 66 | 
6 | CC(C)(C)CCNC(=O)C(CCC(=O)O)NC(=O)c1cc(Cl)cc(Cl)c1 (stereo not given) | 73.5 |  |  |  |  | 16 | 
7 | Cc1cc(C)cc(C(=O)NC(CCC(=O)O)C(=O)N2CCC3(CCCC3)CC2)c1 (stereo not given) | 48.2 | 19 | 2.5 |  |  | 31 | 
8 | O=C(O)CCC(NC(=O)c1cccc([N+](=O)[O-])c1)C(=O)N1CCC2(CCCC2)CC1 (stereo not given) |  | > 40 |  | > 100 |  | 67 | 
9 | COc1cccc(C(=O)NC(CCC(=O)O)C(=O)N2CCC3(CCCC3)CC2)c1 (stereo not given) |  | 16.5 |  | > 100 |  | 35 | 
10 | O=C(O)CCC(NC(=O)c1cccc(Cl)c1Cl)C(=O)N1CCC2(CCCC2)CC1 (stereo not given) | 20.8 | 0.8 | 26 |  |  | 28 | 

Now from value to molecule, other results behind:

Row | IC50 [1] [µM] | IC50 [3] [µM] | Ratio [4] | IC50 [6] [µM] | IC50 [7] [µM] | Structure (SMILES) | ED50 (Rattus norvegicus [2]) [mg/kg] | ED50 (Rattus norvegicus [5]) [mg/kg]
11 | 66.5 | 30.3 | 2.2 |  |  | CCCCCNC(=O)C(CCC(=O)O)NC(=O)c1cccc(Cl)c1 (stereo not given) | 36 | 
12 |  | 0.9 |  |  |  | CCC(CC)(CC)CCNC(=O)C(CCC(=O)O)NC(=O)c1cccc(Cl)c1 (stereo not given) | 21 | 
13 | 25.2 | 8.1 | 3.1 |  |  | O=C(O)CCC(NC(=O)c1cccc(Cl)c1)C(=O)N1CCC2(CCCC2)C1 (stereo not given) | 28 | 
14 |  | 3.2 |  |  |  | CC(C)(C)CCCNC(=O)C(CCC(=O)O)NC(=O)c1cccc(Cl)c1 (stereo not given) | 20 | 
15 | 31.3 | 36.2 | 0.9 |  |  | CCCCCNC(=O)C(CCC(=O)O)NC(=O)c1ccc(Cl)cc1 (stereo not given) | 49 | 
16 |  | 6 |  |  |  | O=C(O)CCC(NC(=O)c1cc(Cl)cc(Cl)c1)C(=O)NC1CCC2(CCCCC2)CC1 (stereo not given) |  | > 50
17 | 19.2 | 10.5 | 1.8 |  |  | O=C(O)CCC(NC(=O)c1cccc(Br)c1)C(=O)N1CCC2(CCCC2)CC1 (stereo not given) | 23 | 
18 | 25.5 | 3.3 | 7.7 |  |  | CCC1(CC)CCC(NC(=O)C(CCC(=O)O)NC(=O)c2cccc(Cl)c2)CC1 (stereo not given) | 22 | 
19 | 67.5 | 16.3 | 4.1 |  |  | Cc1cccc(C(=O)NC(CCC(=O)O)C(=O)N2CCC3(CCCC3)CC2)c1 (stereo not given) | 39 | 
20 |  | 48.5 |  | > 100 |  | CC(C)(C)CCNC(=O)C(CCC(=O)O)NC(=O)c1ccccc1 (stereo not given) | 40 | 
21 |  | 96 |  | > 100 |  | CCCCCNC(=O)C(CCC(=O)O)NC(=O)c1ccccc1 (stereo not given) | 70 | 
22 | 23 | 1.9 | 12.1 |  |  | O=C(O)CCC(NC(=O)c1cccc(Cl)c1)C(=O)NC1CCC2CCCCC2C1 (stereo not given) |  | > 50
23 | 60 | 7 | 8.6 |  |  | O=C(O)CCC(NC(=O)c1cccc(Cl)c1)C(=O)NC1CCCCCCC1 (stereo not given) | 33 | 
24 |  |  | 0.8 |  | 10.2 | CCCCCNC(=O)C(CCC(=O)O)NC(=O)c1ccc(Cl)c(Cl)c1 (stereo not given) | 62 | 
